# According to patent US20230381170A1, “METHOD FOR TREATING ALS/FTD THROUGH DEGRADATION OF RNA REPEAT EXPANSION” (University of Florida Research Foundation, Incorporated, priority 2020, published 2023):
# What was measured:
# r(G2C2)4 = test: 1D NMR imino proton monitoring; type: binding; conditions: hairpin with fully paired stem
# Method: (§1) Preparation of MNR Samples. RNA constructs were purchased from GE Dharmacon, Inc. After deprotection and desalting, RNAs were dissolved in buffer comprising 10 mM sodium phosphates and 100 mM LiCl at pH 7.0 and reannealed by heating to 95° C. for 4 min followed by cooling to room temperature. Solvent consisted of H2O, to which 20 μL of D2O was added to provide a lock signal. Final concentrations of RNA were 100 μM for 1D NMR spectroscopy and 400 μM of RNA for 2D NMR spectroscopy. Dimeric derivatives 2 and 3 were dissolved in DMSO-d6 to 10 mM concentrations.
# (§2) NMR Spectroscopy. NMR spectra were acquired on samples in Shigemi tubes using Bruker Avance 600 and 700 MHz spectrometers equipped with cryoprobes. 1D spectra were recorded on free form RNA, to which 2 and 3 was added to final compound/RNA molar ratios of 0.5 and 1.0. 2D spectra were acquired with 400 ms mixing times on samples containing 3 at 1.0 compound/RNA molar ratio. In 1D and 2D NMR spectra, WATERGATE and excitation pulse sequences were used to suppress the water signal, respectively (53-55). Proton chemical shifts were referenced internally to 4,4-dimethyl-4-silapentane-1-sulfonic acid (DSS, 0.1 mM). 1D spectra were processed using MestreNOVA software. 2D spectra were processed using NMRPipe and assigned using SPARKY (56).
# r(G4C2)4 = test: 1D NMR imino proton monitoring; type: binding
# Method: as §1, §2
# [1] = test system: r(G4C2)exp-containing intron 1; test: C9orf72 intron 1 RT-qPCR in c9ALS iPSC-derived spinal neurons; type: cell-based, human
# Method: iPSCs were differentiated into spinal neuron cells using a previously the previously described direct induced motor neuron (diMNs) differentiation protocol (58) with modifications. Briefly, iPSCs were plated into Matrigel-coated 100 mm dishes (30-40% confluence). Neuroepithelial induction was performed by replacing the iPSC maintenance medium with Stage 1 medium [47.5% IMDM (Iscove's Modified Dulbecco's Medium) medium, 47.5% F12 medium, 1% NEAA (Non-Essential Amino Acid) (Life Technologies), 2% B27 (Invitrogen), 1% N2, 1% PSA (Penicillin-Streptomycin-Amphotericin), 0.2 μM LDN193189 (Stemgent), 10 μM SB431542 ([…] Technologies) and 3 μM CHIR99021 (Sigma-Aldrich)]. After daily medium changes for 6 days, cells were detached with Accutase and seeded into 6-well plates (1.5×10^6 cells/well) in 3 mL Stage 2 medium. Cells were maintained in Stage 2 medium [Stage 1 medium supplemented with 0.1 μM All-trans RA (Sigma-Aldrich) and 1 μM *SAG (Cayman Chemicals)], with daily changes, through Day 11. […]
# Measuring Levels of C9orf72 and C9orf72 Variants by RT-qPCR. […] RNA was extracted as described above and the expression of C9orf72 variants was determined by RT-qPCR. […] RNA was extracted as described above and the expression of C9orf72 variants was determined by RT-qPCR.
# C9orf72 transcripts = test: C9orf72 variants by RT-qPCR in brain of +/+PWR500 C9orf72 BAC mice; type: in vivo, mouse; conditions: three weeks
# Method: Therapeutic Efficacy in a c9ALS/FD mouse model. All animal studies were completed as approved by the Scripps Florida Institutional Animal Care and Use Committee. A total of 24 mice (12+/+PWR500 [7 Male and 5 Female] and 12 WT [6 Male and 6 Female]) mice, age- and gender-matched and ranging in age from 18-22 weeks old were used in therapeutic efficacy studies (Table 6). Mice were anesthetized by intraperitoneal (i.p.) injection of 10 mg/mL Ketamine:1 mg/mL Xylazine solution. Intracerebroventricular (ICV) stereotactic injections of 10 μL of 7 (33 nmol) were administered into the right ventricle using the following coordinates: 0.2 mm posterior and 1.0 mm lateral to the right from the bregma and 3 mm deep. Mice were treated with 7 or vehicle consisting of 1% DMSO in Saline. Three weeks post-treatment, mice were euthanized, and tissue was harvested for study.
# Measuring C9orf72 Variants by RT-qPCR. Postmortem brain tissue was harvested and sliced along the midline. The left hemisphere was frozen for RNA and protein analysis. The left hemisphere of each brain was homogenized in 300 μL ice cold Tris-EDTA buffer with 2× protease inhibitors. 150 μL of homogenized tissue was used for RNA extraction. 450 μL of triazol LS was added to the homogenized tissue and centrifuged for 15 min at 16,000 rpm. Following centrifugation, supernatant was collected and an equal volume (600 μL) of 100% ethanol was added and mixed thoroughly. RNA was purified using a Direct-zol RNA Kit (Zymo Research) per the manufacturer's protocol. RT-qPCR was performed as described above. Expression levels of mRNAs were normalized to mouse (3-actin. See Table 2 for a list of primers. Statistical analysis was measured using an unpaired t-test with Welch's correction.
Compound,changes in 1D NMR spectrum upon addition of compound (r(G2C2)4),"complex formation, imino proton region 1D NMR (r(G4C2)4)",reduction of r(G4C2)exp-containing intron 1 abundance ([1]; 50 nM),reduction of r(G4C2)exp-containing intron 1 abundance ([1]; 500 nM),C9orf72 exon 1b RNA levels (C9orf72 transcripts; 33 nmol ICV),all C9orf72 transcripts (exon 2-exon 3 junction) (C9orf72 transcripts; 33 nmol ICV),"reduction of r(G4C2)exp-containing intron 1 mRNA (C9orf72 transcripts; 33 nmol single ICV injection, compared to vehicle)"
Cc1c2ccncc2c(C)c2c1[nH]c1ccc(OCCOCCOCCNCCOCCOCCOc3ccc4[nH]c5c(C)c6ccncc6c(C)c5c4c3)cc12 [Compound 3],no changes were observed,verified,,,,,
CCOC(=O)C1=C(Nc2ccccc2)S/C(=C\c2ccc(OCCOCCOCCOCCNC(=O)CCC(=O)N(CCOCCOCCOc3ccc4[nH]c5c(C)c6ccncc6c(C)c5c4c3)CCOCCOCCOc3ccc4[nH]c5c(C)c6ccncc6c(C)c5c4c3)c(O)c2)C1=O [Compound 7],,,45±11%,64±10%,not altered,reduced,44±22%
